Results published in patent US11236087B2, “Highly active pyrazolo-piperidine substituted indole-2-carboxamides active against the hepatitis B virus (HBV)” (AiCuris GmbH & Co. KG, priority 2017, dated 2022).
pEC50, pIC50: −log10 of the molar value.

What was measured:
[1] = system: HBV; experiment: Determination of HBV DNA from the supernatants of HepAD38 cells (anti-HBV activity); format: cell-based, hepatitis B virus; settings: Hepatitis B virus, 144 h; HBV DNA in HepAD38 supernatant, day 6, qPCR; read-out: Cell Activity (EC50)
In short: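 HepAD38 cells, tetracycline withdrawn to induce HBV, treated with serial half-log compound dilutions; on day 6 HBV DNA purified from filtered supernatant and quantified by real-time PCR against HBV plasmid standards; EC50 from relative copy numbers by non-linear regression, three experiments in triplicate.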

[2] = biological target: T1, HBV core protein (UniProt P03146); experiment: Biochemical capsid assembly assay (fluorescence quenching); design: species or system hepatitis B virus; settings: read-out: Assembly Activity (IC50); BODIPY-FL labelled core protein, 300 μM NaCl, read 6 min after start
T1 construct: fused on or other part: BODIPY-FL maleimide label on the C-terminal Cys150
Protocol: Biochemical Capsid Assembly Assay
The screening for assembly effector activity was done based on a fluorescence quenching assay published by Zlotnick et al. (2007). The C-terminal truncated core protein containing 149 amino acids of the N-terminal assembly domain fused to a unique cysteine residue at position 150 and was expressed in E. coli using the pET expression system (Merck Chemicals, Darmstadt). Purification of core dimer protein was performed using a sequence of size exclusion chromatography steps. In brief, the cell pellet from 1 L BL21 (DE3) Rosetta2 culture expressing the coding sequence of core protein cloned NdeI/XhoI into expression plasmid pET21b was treated for 1 h on ice with a native lysis buffer (Qproteome Bacterial Protein Prep Kit; Qiagen, Hilden). After a centrifugation step the supernatant was precipitated during 2 h stirring on ice with 0.23 g/ml of solid ammonium sulfate. Following further centrifugation the resulting pellet was resolved in buffer A (100 mM Tris, pH 7.5; 100 mM NaCl; 2 mM DTT) and was subsequently loaded onto a buffer A equilibrated CaptoCore 700 column (GE HealthCare, Frankfurt). The column flow through containing the assembled HBV capsid was dialyzed against buffer N (50 mM NaHCO3 pH 9.6; 5 mM DTT) before urea was added to a final concentration of 3M to dissociate the capsid into core dimers for 1.5 h on ice. The protein solution was then loaded onto a 1 L Sephacryl S300 column. After elution with buffer N core dimer containing fractions were identified by SDS-PAGE and subsequently pooled and dialyzed against 50 mM HEPES pH 7.5; […]. To improve the assembly capacity of the purified core dimers a second round of assembly and disassembly starting with the addition of 5 M NaCl and including the size exclusion chromatography steps described above was performed. From the last chromatography step core dimer containing fractions were pooled and stored in aliquots at concentrations between 1.5 to 2.0 mg/ml at −80° C.
Immediately before labelling the core protein was reduced by adding freshly prepared DTT in a final concentration of 20 mM. After 40 min incubation on ice storage buffer and DTT was removed using a Sephadex G-25 column (GE HealthCare, Frankfurt) and 50 mM HEPES, pH 7.5. For labelling 1.6 mg/ml core protein was incubated at 4° C. and darkness overnight with BODIPY-FL maleimide (Invitrogen, Karlsruhe) in a final concentration of 1 mM. After labelling the free dye was removed by an additional desalting step using a Sephadex G-25 column. Labelled core dimers were stored in aliquots at 4° C. In the dimeric state the fluorescence signal of the labelled core protein is high and is quenched during the assembly of the core dimers to high molecular capsid structures. The screening assay was performed in black 384 well microtiter plates in a total assay volume of 10 μl using 50 mM HEPES pH 7.5 and 1.0 to 2.0 μM labelled core protein. Each screening compound was added in 8 different concentrations using a 0.5 log-unit serial dilution starting at a final concentration of 100 μM, 31.6 μM or 10 μM, In any case the DMSO concentration over the entire microtiter plate was 0.5%. The assembly reaction was started by the injection of NaCl to a final concentration of […] which induces the assembly process to approximately 25% of the maximal quenched signal. 6 min after starting the reaction the fluorescence signal was measured using a Clariostar plate reader (BMG Labtech, Ortenberg) with an excitation of 477 nm and an emission of 525 nm. As 100% and 0% assembly control HEPES buffer containing 2.5 M and 0 M NaCl was used. Experiments were performed thrice in triplicates. EC50 values were calculated by non-linear regression analysis using the Graph Pad Prism 6 software (GraphPad Software, La Jolla, USA).

[3] = Cell viability assay (AlamarBlue) in HepAD38 cells; settings: human

T1 sequence (P03146 whole entry, looked up, the tested form may be a part): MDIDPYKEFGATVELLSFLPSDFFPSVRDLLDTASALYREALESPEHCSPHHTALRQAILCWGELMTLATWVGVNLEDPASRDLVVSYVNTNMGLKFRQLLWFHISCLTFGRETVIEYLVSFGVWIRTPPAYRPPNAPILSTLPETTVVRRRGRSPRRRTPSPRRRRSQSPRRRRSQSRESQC

CN(C(=O)c1n[nH]c2c1CN(C(=O)c1cc3ccccc3[nH]1)CC2)[C@@H]1CCCC[C@H]1O (racemic) [Example 192, N-[(±)-2-hydroxycyclohexyl]-5-(1H-indole-2-carbonyl)-N-methyl-1H,4H,5H,6H,7H-pyrazolo[4,3-c]pyridine-3-carboxamide]
pEC50 [1]: > 6.00
pIC50 [2]: 5.00 to 5.30
CC50 at 6 days [3]: > 10 µM

CN(CCO)C(=O)c1n[nH]c2c1CN(C(=O)c1cc3c(C(F)F)cc(F)cc3[nH]1)CC2 [Example 3, 5-[4-(difluoromethyl)-6-fluoro-1H-indole-2-carbonyl]-N-(2-hydroxyethyl)-N-methyl-1H,4H,5H,6H,7H-pyrazolo[4,3-c]pyridine-3-carboxamide]
pEC50 [1]: > 6.00
pIC50 [2]: > 5.30
CC50 at 6 days [3]: > 10 µM

CN(CCO)C(=O)c1n[nH]c2c1CN(C(=O)c1cc3c(C(F)F)cccc3[nH]1)CC2 [Example 4, 5-[4-(difluoromethyl)-1H-indole-2-carbonyl]-N-(2-hydroxyethyl)-N-methyl-1H,4H,5H,6H,7H-pyrazolo[4,3-c]pyridine-3-carboxamide]
pEC50 [1]: > 6.00
pIC50 [2]: > 5.30
CC50 at 6 days [3]: > 10 µM

CN(CCO)C(=O)c1n[nH]c2c1CN(C(=O)c1cc3c(C(C)(F)F)cccc3[nH]1)CC2 [Example 5, 5-[4-(1,1-difluoroethyl)-1H-indole-2-carbonyl]-N-(2-hydroxyethyl)-N-methyl-1H,4H,5H,6H,7H-pyrazolo[4,3-c]pyridine-3-carboxamide]
pEC50 [1]: > 4.00
pIC50 [2]: > 5.30
CC50 at 6 days [3]: > 32 µM

CN(CCO)C(=O)c1n[nH]c2c1CN(C(=O)c1cc3cc(F)c(Cl)cc3[nH]1)CC2 [Example 6, 5-(6-chloro-5-fluoro-1H-indole-2-carbonyl)-N-(2-hydroxyethyl)-N-methyl-1H,4H,5H,6H,7H-pyrazolo[4,3-c]pyridine-3-carboxamide]
pEC50 [1]: > 6.00
pIC50 [2]: > 5.30
CC50 at 6 days [3]: > 10 µM

CN(CCO)C(=O)c1n[nH]c2c1CN(C(=O)c1cc3cc(F)c(F)cc3[nH]1)CC2 [Example 7, 5-(5,6-difluoro-1H-indole-2-carbonyl)-N-(2-hydroxyethyl)-N-methyl-1H,4H,5H,6H,7H-pyrazolo[4,3-c]pyridine-3-carboxamide]
pEC50 [1]: > 6.00
pIC50 [2]: > 5.30
CC50 at 6 days [3]: > 10 µM

CN(CCO)C(=O)c1n[nH]c2c1CN(C(=O)c1cc3c(F)c(F)c(F)cc3[nH]1)CC2 [Example 8, N-(2-hydroxyethyl)-N-methyl-5-(4,5,6-trifluoro-1H-indole-2-carbonyl)-1H,4H,5H,6H,7H-pyrazolo[4,3-c]pyridine-3-carboxamide]
pEC50 [1]: > 6.00
pIC50 [2]: > 5.30
CC50 at 6 days [3]: > 10 µM

CCc1ccc(F)c2[nH]c(C(=O)N3CCc4[nH]nc(C(=O)N(C)CCO)c4C3)cc12 [Example 9, 5-(4-ethyl-7-fluoro-1H-indole-2-carbonyl)-N-(2-hydroxyethyl)-N-methyl-1H,4H,5H,6H,7H-pyrazolo[4,3-c]pyridine-3-carboxamide]
pEC50 [1]: > 6.00
pIC50 [2]: > 5.30
CC50 at 6 days [3]: > 10 µM

CCc1cc(F)cc2[nH]c(C(=O)N3CCc4[nH]nc(C(=O)N(C)CCO)c4C3)cc12 [Example 10, 5-(4-ethyl-6-fluoro-1H-indole-2-carbonyl)-N-(2-hydroxyethyl)-N-methyl-1H,4H,5H,6H,7H-pyrazolo[4,3-c]pyridine-3-carboxamide]
pEC50 [1]: > 6.00
pIC50 [2]: > 5.30
CC50 at 6 days [3]: > 10 µM

CCc1cc(F)cc2[nH]c(C(=O)N3CCc4n[nH]c(-c5cscn5)c4C3)cc12 [Example 12, 4-ethyl-6-fluoro-2-[3-(1,3-thiazol-4-yl)-2H,4H,5H,6H,7H-pyrazolo[4,3-c]pyridine-5-carbonyl]-1H-indole]
pEC50 [1]: > 6.00
pIC50 [2]: > 5.30
CC50 at 6 days [3]: > 10 µM

COC(=O)C1CCN(C(=O)c2n[nH]c3c2CN(C(=O)c2cc4ccccc4[nH]2)CC3)CC1 [Example 132, methyl 1-[5-(1H-indole-2-carbonyl)-1H,4H,5H,6H,7H-pyrazolo[4,3-c]pyridine-3-carbonyl]piperidine-4-carboxylate]
pIC50 [2]: > 5.30
CC50 at 6 days [3]: > 10 µM

CN(C(=O)c1n[nH]c2c1CN(C(=O)c1cc3ccccc3[nH]1)CC2)C(C)(C)CO [Example 143, N-(1-hydroxy-2-methylpropan-2-yl)-5-(1H-indole-2-carbonyl)-N-methyl-1H,4H,5H,6H,7H-pyrazolo[4,3-c]pyridine-3-carboxamide]
pEC50 [1]: 4.60 to 6.00
pIC50 [2]: 5.00 to 5.30

CCOCC1(N(C)C(=O)c2[nH]nc3c2CN(C(=O)c2cc4ccc(F)cc4[nH]2)CC3)CC1 [Example 395, N-[1-(ethoxymethyl)cyclopropyl]-5-(6-fluoro-1H-indole-2-carbonyl)-N-methyl-2H,4H,5H,6H,7H-pyrazolo[4,3-c]pyridine-3-carboxamide]
pEC50 [1]: > 6.00
CC50 at 6 days [3]: > 10 µM

O=C(c1cc2c(F)ccc(F)c2[nH]1)N1CCc2[nH]nc(C3CCC3)c2C1 [Example 396, 2-{3-cyclobutyl-1H,4H,5H,6H,7H-pyrazolo[4,3-c]pyridine-5-carbonyl}-4,7-difluoro-1H-indole]
pEC50 [1]: > 6.00
CC50 at 6 days [3]: > 10 µM

O=C(c1cc2c(F)cccc2[nH]1)N1CCc2n[nH]c(C3CCC3)c2C1 [Example 397, 2-{3-cyclobutyl-2H,4H,5H,6H,7H-pyrazolo[4,3-c]pyridine-5-carbonyl}-4-fluoro-1H-indole]
pEC50 [1]: > 6.00
CC50 at 6 days [3]: > 10 µM

Cc1noc(C2(N(C)C(=O)c3[nH]nc4c3CN(C(=O)c3cc5ccccc5[nH]3)CC4)CC2)n1 [Example 398, 5-(1H-indole-2-carbonyl)-N-methyl-N-[1-(3-methyl-1,2,4-oxadiazol-5-yl)cyclopropyl]-2H,4H,5H,6H,7H-pyrazolo[4,3-c]pyridine-3-carboxamide]
pEC50 [1]: > 6.00
CC50 at 6 days [3]: > 10 µM

CC(F)(F)c1cc(F)cc2[nH]c(C(=O)N3CCc4n[nH]c(C5CCC5)c4C3)cc12 [Example 399, 2-{3-cyclobutyl-2H,4H,5H,6H,7H-pyrazolo[4,3-c]pyridine-5-carbonyl}-4-(1,1-difluoroethyl)-6-fluoro-1H-indole]
pEC50 [1]: > 6.00
CC50 at 6 days [3]: > 10 µM

O=C(c1cc2c(C(F)F)cc(F)cc2[nH]1)N1CCc2n[nH]c(C3CCC3)c2C1 [Example 400, 2-{3-cyclobutyl-2H,4H,5H,6H,7H-pyrazolo[4,3-c]pyridine-5-carbonyl}-4-(difluoromethyl)-6-fluoro-1H-indole]
pEC50 [1]: > 6.00
CC50 at 6 days [3]: > 10 µM

O=C(c1cc2ccccc2[nH]1)N1CCc2n[nH]c(C(=O)N3CC(F)(F)CC34CC4)c2C1 [Example 401, 2-(3-{6,6-difluoro-4-azaspiro[2.4]heptane-4-carbonyl}-2H,4H,5H,6H,7H-pyrazolo[4,3-c]pyridine-5-carbonyl)-1H-indole]
pEC50 [1]: > 6.00
CC50 at 6 days [3]: > 10 µM

CN(C(=O)c1[nH]nc2c1CN(C(=O)c1cc3ccccc3[nH]1)CC2)C1(c2ccno2)CC1 [Example 402, 5-(1H-indole-2-carbonyl)-N-methyl-N-[1-(1,2-oxazol-5-yl)cyclopropyl]-2H,4H,5H,6H,7H-pyrazolo[4,3-c]pyridine-3-carboxamide]
pEC50 [1]: > 6.00
CC50 at 6 days [3]: > 10 µM
